# Read-outs that look alike come from different tables or passages of the source.
# What was measured:
# [1] = system: Aspergillus terreus; assay: Clinical isolates of other fungal species, checkerboard; format: cell-based
# [2] = system: Fusarium sp.; assay: as above; format: cell-based
# Experimental: To determine the synergy between Compound 4 and azoles against other fungal species, a series of clinical isolates (Micheal Rinaldi, University of Texas Health Science Center) was tested by the checkerboard method as described in Example 1.
# [3] = system: C. lusitaniae; assay: Clinical isolates, CLSI M27-A2 broth microdilution and checkerboard; format: cell-based
# [4] = system: C. glabrata (ATCC 90030); format: cell-based
# [5] = system: C. albicans; assay: Clinical isolates, CLSI M27-A2 broth microdilution and checkerboard; format: cell-based; conditions: Cpd 4 with voriconazole
# [6] = system: A. fumigatus ATCC 1022; assay: MIC80 and checkerboard synergy, broth microdilution (NCCLS M38-A); format: cell-based, Aspergillus fumigatus
# [7] = system: Rhizopus arrhizus; assay: Clinical isolates of other fungal species, checkerboard; format: cell-based
# [8] = system: HMEC; assay: Mammalian cytotoxicity, MTT reduction
# [9] = system: C. tropicalis; assay: Clinical isolates, CLSI M27-A2 broth microdilution and checkerboard; format: cell-based
# [10] = system: Mucor Sp.; assay: Clinical isolates of other fungal species, checkerboard; format: cell-based
# [11] = system: C. dubliniensis; assay: Clinical isolates, CLSI M27-A2 broth microdilution and checkerboard; format: cell-based
# [12] = system: A. fumigatus; assay: Clinical isolates, CLSI M38-A broth microdilution and checkerboard; format: cell-based
# [13] = Rhizopus arrhizus, *Synergy occurs at ½ MIC of Cpd 4
# [14] = Cpd 4 with fluconazole, C. dubliniensis clinical isolates
# [15] = Cpd 4 with voriconazole, C. dubliniensis clinical isolates
smiles,measurement,setting,value
O=C(Cc1ccc(CCCCc2ccccc2)cc1)NO [Cpd 4],Synergy with Cpd 4 (strains showing synergy/total strains tested) Itraconazole,[1]; Aspergillus terreus,3/3
same,Synergy with Cpd 4 (strains showing synergy/total strains tested) Voriconazole,[1]; Aspergillus terreus,3/3
same,MIC,"[1]; Aspergillus terreus clinical isolates, read-out: Cpd 4 MIC",> 8 µg/mL
same,Synergy with Cpd 4 (strains showing synergy/total strains tested) Itraconazole,[2]; Fusarium sp.,1/3
same,MIC,"[2]; Fusarium sp. clinical isolates, read-out: Cpd 4 MIC",8 µg/mL
same,Synergy with Cpd 4 (strains showing synergy/total strains tested) Voriconazole,"[2]; Fusarium sp., *Synergy occurs at ½ MIC of Cpd 4",3/3*
same,FLU/Cpd 4 FIC,[3]; Cpd 4 with fluconazole,<0.1
same,FLU/Cpd 4 FIC interpretation,[3]; Cpd 4 with fluconazole,(S) (S = synergy)
same,VOR/Cpd 4 FIC interpretation,[3]; Cpd 4 with voriconazole,(S) (S = synergy)
same,minimum Compound 4 concentration at which Compound 4 alone inhibited growth (number in brackets),[3]; VOR checkerboard,4 µg/mL
same,frequency of resistant mutants,[4]; 4× synergistic MIC80 concentrations of Compound 4 and fluconazole,2×10^−7
same,frequency of resistant mutants,[4]; 4× the synergistic MIC80 of Compound 4 and itraconazole,1×10^−7
same,resistant mutants detected,[4]; Compound 4 and itraconazole at 2×MIC,no mutants were detected
same,VOR/Cpd 4 FIC interpretation,[5],(S) (S = synergy)
same,MIC,"[6]; Aspergillus fumigatus, ATCC1022, A. fumigatus (1022), read-out: Cpd 4 MIC",2 to 5 µg/mL
same,Cpd 4 Conc for 4-fold synergy,"[6]; with itraconazole, A. fumigatus (1022)",5 µg/mL
same,Cpd 4 Conc for 4-fold synergy,"[6]; with ketoconazole, A. fumigatus (1022)",2.5 µg/mL
same,conc. for 4-fold synergy,"[6]; with ketoconazole, A. fumigatus ATCC 1022, 48 hours",0.5 µg/mL
same,Cpd 4 Conc for 4-fold synergy,"[6]; with voriconazole, A. fumigatus (1022)",5 µg/mL
same,MIC,"[7]; Rhizopus arrhizus clinical isolates, read-out: Cpd 4 MIC",> 8 µg/mL
same,Synergy with Cpd 4 (strains showing synergy/total strains tested) Itraconazole,[7]; [13],2/3*
same,Synergy with Cpd 4 (strains showing synergy/total strains tested) Voriconazole,[7]; [13],2/3*
same,MTT HMEC,[8],13 µM
same,Conc. Cpd 4 for 4-fold decrease,[9]; 4-fold reduction of FLU MIC,0.5 µg/mL
same,VOR/Cpd 4 FIC interpretation,[9]; Cpd 4 with voriconazole,(S) (S = synergy)
same,Synergy with Cpd 4 (strains showing synergy/total strains tested) Itraconazole,[10]; Mucor Sp.,1/3
same,Synergy with Cpd 4 (strains showing synergy/total strains tested) Voriconazole,[10]; Mucor Sp.,0/3
same,MIC,"[10]; Mucor Sp. clinical isolates, read-out: Cpd 4 MIC",8 µg/mL
same,FLU/Cpd 4 FIC,[11]; [14],2.0
same,FLU/Cpd 4 FIC interpretation,[11]; [14],(I) (I = indifference)
same,VOR/Cpd 4 FIC,[11]; [15],2.0
same,VOR/Cpd 4 FIC interpretation,[11]; [15],(I) (I = indifference)
same,minimum Compound 4 concentration at which Compound 4 alone inhibited growth (number in brackets),"[11]; FLU checkerboard, C. dubliniensis clinical isolates",0.03 µg/mL
same,minimum Compound 4 concentration at which Compound 4 alone inhibited growth (number in brackets),"[11]; VOR checkerboard, C. dubliniensis clinical isolates",0.12 µg/mL
same,activity of Compound 4 alone,[11]; all 4 clinical isolates of C. dubliniensis,potent activity alone
same,ITR/Cpd 4 FIC interpretation,[12]; Cpd 4 with itraconazole,(S) (S = synergy)
same,VOR/Cpd 4 FIC interpretation,[12]; Cpd 4 with voriconazole,(S) (S = synergy)
same,minimum Compound 4 concentration at which Compound 4 alone inhibited growth (number in brackets),[12]; ITR checkerboard,4.0 µg/mL

# — patent US8759400B2, “Histone deacetylase inhibitors for enhancing activity of antifungal agents” (MethylGene Inc., priority 2005, dated 2014)
